According to patent US4665022A (priority 1984, dated 1987):
Like-named read-outs stand apart in the source and are kept apart here.

Legend:
[1] = target: nACh receptors in the cerebral cortex (Rattus norvegicus, UniProt Q05941); assay: biochemical; type: binding
nicotinic binding sites = target: nicotinic binding sites; set-up: species or system rat

nACh receptors in the cerebral cortex, sequence (Q05941 23-502): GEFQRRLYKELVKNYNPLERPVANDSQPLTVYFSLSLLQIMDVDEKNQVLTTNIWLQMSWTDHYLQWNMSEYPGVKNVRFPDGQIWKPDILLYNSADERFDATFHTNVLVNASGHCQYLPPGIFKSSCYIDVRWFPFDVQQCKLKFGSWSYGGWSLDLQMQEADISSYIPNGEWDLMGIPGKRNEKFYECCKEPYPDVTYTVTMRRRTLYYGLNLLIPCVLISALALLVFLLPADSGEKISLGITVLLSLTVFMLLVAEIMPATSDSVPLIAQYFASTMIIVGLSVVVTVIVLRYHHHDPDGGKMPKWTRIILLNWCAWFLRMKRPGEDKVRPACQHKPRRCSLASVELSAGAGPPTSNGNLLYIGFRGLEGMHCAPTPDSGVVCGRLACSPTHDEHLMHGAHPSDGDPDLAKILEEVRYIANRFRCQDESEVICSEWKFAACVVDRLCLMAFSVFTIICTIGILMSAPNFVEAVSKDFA

| Molecule | Ki ([1]; read-out: KI) [µM] | Ki [1] [µM] | Ki (nicotinic binding sites) [µM] |
| --- | --- | --- | --- |
| C[N+](C)(C)CCOC(N)=O [carbamyl choline] | 0.2 |  |  |
| COc1cc2c3cc1Oc1cc(ccc1O)C[C@@H]1c4c(cc(OC)c(O)c4Oc4ccc(cc4)C[C@@H]3N(C)CC2)CC[N+]1(C)C [d-tubocurarine] | 0.06 |  |  |
| CN1[C@@H]2C[C@@H](OC(=O)[C@H](CO)c3ccccc3)C[C@H]1[C@@H]1O[C@@H]12 [scopolamine] |  | > 10000 |  |
| alpha-bungarotoxin | 0.00012 |  | 0.00013 |
